Legend:
[1] = tested on: 4T1-Luc2-1A4 tumour cells; details: monitored over 52 days; log-rank (Mantel-Cox) test
Experimental: Dilutions of the attenuated Salmonella Typhimurium strain (MD58) were made in PBS as required to achieve 1×10^9 CFU/100 μl for oral gavage.
6-7-week-old female BALB/c mice were pre-treated orally with 1×10^9 CFU Salmonella MD58 or PBS control. On day 0 mice were inoculated in mammary fat pad #4 with 5×10^5 4T1-Luc2-1A4 tumour cells. […] Primary tumour volumes were measured 3 times per week, lung tumour burden was measured by bioluminescent imaging (BLI) and survival was monitored until 52 days after tumour inoculation

[2] = tested on: Primary human monocytes; experiment: In vitro conditioning of primary human monocytes, TNFα release after PAMP/DAMP challenge (ELISA); format: cell-based
Experimental: Primary human monocytes were conditioned in vitro with Salmonella for 30 minutes prior to being washed with an antibiotic to remove all Salmonella and subsequently rested for 6 days in the presence of M-CSF. Following the 6 day rest period, the human monocytes were stimulated with PAMPs, DAMPs or a media only control, and the level of TNFα release measured via ELISA.

Row | Compound | survival compared to PBS+saline control [1] | level of release of TNFα compared to cells treated with media (negative control) ([2]; challenge other than PAMPs (DAMPs)) | responsiveness to PAMPs and DAMPs, level of release of TNFα ([2]; conditioned 30 minutes, rested 6 days with M-CSF, then challenged)
1 | O=P1(N(CCCl)CCCl)NCCCO1 (stereo not drawn) [PBS+cyclophosphamide, cyclophosphamide] | significantly better survival | – | –
2 | β-glucan | – | no difference | only induces hyperresponsiveness in response to challenge with PAMPs

Source: patent US20250041356A1, “COMBINATION CANCER THERAPY” (Prokarium Limited, priority 2021, published 2025)
